In ChEMBL document CHEMBL1833908, “Hydrazidomycins, cytotoxic alkylhydrazides from Streptomycesatratus” (Bioorg Med Chem Lett, 2011):

Experiments:
Format in all cases: functional, cell-based
[1] = Cytotoxicity against human CXF 269L cells by propidium iodide staining
[2] = Cytotoxicity against human LXFA 629L cells by propidium iodide staining
[3] = tested on: LNCaP; assay: Cytotoxicity against human LNCAP cells by propidium iodide staining
[4] = Cytotoxicity against human BXF 1218L cells by propidium iodide staining
[5] = tested on: HCT-116; assay: Cytotoxicity against human HCT116 cells by propidium iodide staining
[6] = tested on: RKO; assay: Cytotoxicity against human RKO cells by propidium iodide staining
[7] = tested on: CAL-27; assay: Cytotoxicity against human CAL27 cells by propidium iodide staining
[8] = Cytotoxicity against human PAXF 1657L cells by propidium iodide staining
[9] = tested on: SAOS-2; assay: Cytotoxicity against human Saos2 cells by propidium iodide staining
[10] = Cytotoxicity against human MEXF 462NL cells by propidium iodide staining
[11] = Cytotoxicity against human LXFL 529L cells by propidium iodide staining
[12] = Cytotoxicity against human MEXF 1341L cells by propidium iodide staining
[13] = tested on: MCF7; assay: Cytotoxicity against human MCF7 cells by propidium iodide staining
[14] = Cytotoxicity against human LXFL 1121L cells by propidium iodide staining
[15] = tested on: MDA-MB-231; assay: Cytotoxicity against human MDA-MB-231 cells by propidium iodide staining
[16] = tested on: TE-671; assay: Cytotoxicity against human TE671 cells by propidium iodide staining
[17] = Cytotoxicity against human LXFA 289L cells by propidium iodide staining
[18] = tested on: DU-145; assay: Cytotoxicity against human DU145 cells by propidium iodide staining
[19] = Cytotoxicity against human RXF 393NL cells by propidium iodide staining
[20] = Cytotoxicity against human NIH:OVCAR3 cells by propidium iodide staining; details: OVCAR-3
[21] = Cytotoxicity against human BXF 1352L cells by propidium iodide staining
[22] = tested on: HT-29; assay: Cytotoxicity against human HT-29 cells by propidium iodide staining
[23] = Cytotoxicity against human GXF251L cells by propidium iodide staining; details: GXF 251L
[24] = Cytotoxicity against human PC3M cells by propidium iodide staining; details: PC-3M
[25] = Cytotoxicity against human LXFA 526L cells by propidium iodide staining
[26] = Cytotoxicity against human LIXF 575L cells by propidium iodide staining
[27] = Cytotoxicity against human RXF 486L cells by propidium iodide staining
[28] = Cytotoxicity against human DIFI cells by propidium iodide staining
[29] = Cytotoxicity against human UXF 1138L cells by propidium iodide staining
[30] = tested on: NCI-H460; assay: Cytotoxicity against human NCI-H460 cells by propidium iodide staining
[31] = Cytotoxicity against human PXF 698L cells by propidium iodide staining
[32] = Cytotoxicity against human RXF 1781L cells by propidium iodide staining
[33] = Cytotoxicity against human PXF 1752L cells by propidium iodide staining
[34] = Cytotoxicity against human MEXF 276L cells by propidium iodide staining; details: MEXF276L
[35] = Cytotoxicity against human MAXF 401NL cells by propidium iodide staining
[36] = tested on: PANC-1; assay: Cytotoxicity against human PANC1 cells by propidium iodide staining
[37] = Cytotoxicity against human PAXF 546L cells by propidium iodide staining
[38] = tested on: MKN-45; assay: Cytotoxicity against human MKN45 cells by propidium iodide staining
[39] = Cytotoxicity against human OVXF 899L cells by propidium iodide staining
[40] = tested on: CWR22R; assay: Cytotoxicity against human 22Rv1 cells by propidium iodide staining
[41] = Cytotoxicity against human PXF 1118L cells by propidium iodide staining
[42] = tested on: T-24; assay: Cytotoxicity against human T24 cells by propidium iodide staining

With CCCCCCCCCCCC/C=C\N(NC(=O)COC)C(=O)CCCCCCCCC [HYDRAZIDOMYCIN A] the IC50 [1] was 222 nM, the IC50 [2] was 247 nM and the IC50 [3] was 957 nM. For the same molecule, the IC50 [4] was 2430 nM, the IC50 [5] was 758 nM and the IC50 [6] was 598 nM. It also gave an IC50 [7] of 716 nM, an IC50 [8] of 1910 nM and an IC50 [9] of 1820 nM. The IC50 [10] was 765 nM, the IC50 [11] was 2120 nM and the IC50 [12] was 936 nM. For the same molecule, the IC50 [13] was 782 nM, the IC50 [14] was 2310 nM and the IC50 [15] was 286 nM. The IC50 [16] was 898 nM, the IC50 [17] was 1100 nM and the IC50 [18] was 539 nM. It also gave an IC50 [19] of 1110 nM, an IC50 [20] of 1100 nM and an IC50 [21] of 2300 nM. The IC50 [22] was 464 nM, the IC50 [23] was 144 nM and the IC50 [24] was 105 nM. For the same molecule, the IC50 [25] was 1650 nM, the IC50 [26] was 349 nM and the IC50 [27] was 1620 nM. The IC50 [28] was 782 nM, the IC50 [29] was 893 nM and the IC50 [30] was 2310 nM. It also gave an IC50 [31] of 982 nM, an IC50 [32] of 982 nM and an IC50 [33] of 1190 nM. The IC50 [34] was 1590 nM, the IC50 [35] was 471 nM and the IC50 [36] was 933 nM. For the same molecule, the IC50 [37] was 660 nM, the IC50 [38] was 676 nM and the IC50 [39] was 1340 nM. It also gave an IC50 [40] of 882 nM and an IC50 [41] of 2400 nM.

Molecule CCCCCCC/C=C\CCCCC/C=C\N(NC(=O)COC)C(=O)CCCCCCCCC [HYDRAZIDOMYCIN B] has an IC50 [1] of 5940 nM, an IC50 [42] of 9190 nM and an IC50 [2] of 1410 nM. For the same molecule, the IC50 [3] was 14100 nM, the IC50 [4] was 19300 nM and the IC50 [5] was 19400 nM. It also gave an IC50 [6] of 13800 nM, an IC50 [7] of 12700 nM and an IC50 [8] of 20400 nM. For the same molecule, the IC50 [9] was 18000 nM, the IC50 [10] was 20400 nM and the IC50 [11] was 17300 nM. For the same molecule, the IC50 [12] was 14900 nM, the IC50 [13] was 11000 nM and the IC50 [14] was 17400 nM. For the same molecule, the IC50 [15] was 5530 nM, the IC50 [16] was 18200 nM and the IC50 [17] was 12600 nM. It also gave an IC50 [18] of 7220 nM, an IC50 [19] of 11000 nM and an IC50 [20] of 18500 nM. The IC50 [21] was 15100 nM, the IC50 [22] was 6540 nM and the IC50 [23] was 1540 nM. For the same molecule, the IC50 [24] was 1730 nM, the IC50 [25] was 7070 nM and the IC50 [26] was 7390 nM. The IC50 [27] was 21200 nM, the IC50 [28] was 10200 nM and the IC50 [29] was 18200 nM. It also gave an IC50 [30] of 17200 nM, an IC50 [31] of 14300 nM and an IC50 [32] of 10200 nM. For the same molecule, the IC50 [33] was 12700 nM, the IC50 [34] was 18300 nM and the IC50 [35] was 876 nM. The IC50 [36] was 10000 nM, the IC50 [37] was 10800 nM and the IC50 [38] was 11600 nM. The IC50 [39] was 19100 nM, the IC50 [40] was 15600 nM and the IC50 [41] was 30000 nM.
